{
  "source": "patent US20120088694A1",
  "about": "“CELL ASSAY METHODS AND ARTICLES” (NanoInk, Inc., priority 2010, published 2012)",
  "test_system": "NIH 3T3 fibroblasts",
  "test": "Fibroblast spreading and migration on fibronectin patterns with PEG hydrogel delivering compound",
  "assay_type": "cell-based",
  "method": "An exemplary method is described here for patterning cells onto surfaces using direct deposition of extracellular matrix (ECM) proteins and for delivering multiple compounds to individual cells. First, actin polymerization and stress fiber formation was followed over a 2 hour time period. Second, multiple ECM proteins were patterned on the same substrate and side-by-side analysis of single cells was done to characterize differential responses. Finally, polyethylene glycol with or without Cytochalasin-D (250 μM or 500 μM) was delivered to individual cells. A method was established for single cell analysis with multiple compounds on the same substrate. The NLP 2000 (NanoInk, Inc., Skokie, Ill.) fabrication system was used for patterning of ECM proteins and hydrogel composites. After approximately 4 hours, substrates were rinsed and non-specific cell binding is blocked with a solution of bovine serum albumin. NIH 3T3 fibroblasts (ATCC) were added at high density for 30 minutes, at which point non-adherent cells are washed and removed. Complete media was then added for between 0.5 and 3.5 hours before paraformaldehyde fixation, staining and analysis. Cells attach to approximately 75% of the patterns deposited onto glass surfaces. Cell morphology was controlled and actin polymerization was more developed with more elongated stress fibers at 2 hours versus earlier time points. […] Combinatorial experimentation is increasingly important with regard to the cellular microenvironment.\nA mixture of PEG-DMA, 4-arm PEG thiol, and Cytochalasin D, a compound of interest, is patterned onto an epoxy-coated glass slide. After curing with UV, fibronectin, an ECM protein, was patterned onto the glass slide around the cured hydrogel. In a control hydrogel pattern, only PEG-DMA and 4-arm PEG thiol, but not any compound of interest, were used for fabricating the hydrogel.\nSubsequently, 3T3 fibroblasts were plated onto the glass slide with PEG and fibronectin as described above. […] FIGS. 11 and 12 show the time course following spreading and migration of fibroblasts over a period of 4 hours.",
  "key": {"[1]": {"conditions": "cells cultured for 2 hours, Cytochalasin D in the PEG hydrogel vs control hydrogel, 15 patterns per group"}},
  "data": [
    {"molecule": "C=C1[C@@H](C)[C@H]2[C@H](Cc3ccccc3)NC(=O)[C@]23[C@H](OC(C)=O)/C=C/[C@@](C)(O)C(=O)[C@@H](C)C/C=C/[C@H]3[C@@H]1O", "note": "[Cytochalasin D]", "values": [
      {"measurement": "migration of fibroblasts from the fibronectin patterned area", "setting": "250 and 500 μM in PEG hydrogel, time course over 4 hours, vs PEG without CytoD", "value": "prevented migration of fibroblasts from the fibronectin patterned area"},
      {"measurement": "cell spreading and migration", "setting": "Cytochalasin-D (250 μM or 500 μM) delivered in PEG hydrogel to individual cells", "value": "decline in cell spreading and migration"},
      {"measurement": "number of cells on patterns (images, average fluorescence intensity)", "setting": "[1]", "value": "significantly fewer cells"},
      {"measurement": "spreading and/or migration away from the patterns", "setting": "[1]", "value": "less spreading and/or migration away from the patterns"}
    ]}
  ]
}
